Experimental data from patent US20230053437A1, “LIPID COMPOUNDS AND LIPID NANOPARTICLE COMPOSITIONS” (Suzhou Abogen Biosciences Co., Ltd., priority 2020, published 2023).

Experiments:
Assay type in all cases: physicochemical
[1] = Lipid nanoparticle size by dynamic light scattering (Malvern Zetasizer Nano ZS); settings: LNP: cationic lipid/DSPC/cholesterol/PEG-lipid 50:10:38.5:1.5 with hEPO mRNA
Method: (§1) Briefly, a cationic lipid provided herein, DSPC, cholesterol, and PEG-lipid were solubilized in ethanol at a molar ratio of 50:10:38.5:1.5, and mRNA were diluted in 10 to 50 mM citrate buffer, pH=4. The LNPs were prepared at a total lipid to mRNA weight ratio of approximately 10:1 to 30:1 by mixing the ethanolic lipid solution with the aqueous mRNA solution at a volume ratio of 1:3 using a microfluidic apparatus, total flow rate ranging from 9-30 mL/min. Ethanol were thereby removed and replaced by DPBS using dialysis. Finally, the lipid nanoparticles were filtered through a […] sterile filter.
(§2) Lipid nanoparticle size were determined by dynamic light scattering using a Malvern Zetasizer Nano ZS (Malvern UK) using a 173° backscatter detection mode. The encapsulation efficiency of lipid nanoparticles were determined using a Quant-it Ribogreen RNA quantification assay kit (Thermo Fisher Scientific, UK) according to the manufacturer's instructions.

[2] = Encapsulation efficiency of lipid nanoparticles, Quant-it Ribogreen RNA quantification assay; settings: LNP with hEPO mRNA
Method: as §1, §2

[3] = Apparent pKa of LNP formulations, TNS fluorescence assay; settings: LNP cationic lipid/DSPC/cholesterol/DMG-PEG 50/10/38.5/1.5 mol %, pH 3 to 9
Method: As reported in literature, the apparent pKa of LNP formulations correlates with the delivery efficiency of LNPs for nucleic acids in vivo. The apparent pKa of each formulation was determined using an assay based on fluorescence of 2-(p-toluidino)-6-napthalene sulfonic acid (TNS). LNP formulations comprising of cationic lipid/DSPC/cholesterol/DMG-PEG (50/10/38.5/1.5 mol %) in PBS were prepared as described above. TNS was prepared as a 300 uM stock solution in distilled water. LNP formulations were diluted to 0.1 mg/ml total lipid in 3 mL of buffered solutions containing 50 mM sodium citrate, 50 mM sodium phosphate, 50 mM sodium borate, and 30 mM sodium chloride where the pH ranged from 3 to 9. An aliquot of the TNS solution was added to give a final concentration of 0.1 mg/ml and following vortex mixing fluorescence intensity was measured at room temperature in a Molecular Devices Spectramax iD3 spectrometer using excitation and mission wavelengths of 325 nm and 435 nm. A sigmoidal best fit analysis was applied to the fluorescence data and the pKa value was measured as the pH giving rise to half-maximal fluorescent intensity.

polydispersity [1] | size (nm) [1] | Encapsulation Efficiency [2] | Apparant Pka [3] | SMILES
0.2 | 54.56 nm | 99.7% | 7.65 | CCCCCCCCCCCC(=O)OCC1(COCCCCCCCC(=O)OC(CCCCCCCC)CCCCCCCC)CCN(C(=O)CCN(C)C)CC1 [Compound 61]
0.165 | 71.61 nm | 93.6% | 7.98 | CCCCCCCCCCCC(=O)OCC1(COC(=O)CCCCCCCCCCC)CCN(C(=O)CCN(CCO)CCCC)CC1 [Compound 24]
0.424 | 103.3 nm | 101.7% | 7.46 | CCCCCCCCC(CCCCCC)COC(=O)CCCCCC(=O)OCC1(COC(=O)CCCCCC(=O)OCC(CCCCCC)CCCCCCCC)CCN(C(=O)CCN(C)C)CC1 (centres unmarked) [Compound 51]
0.127 | 57.44 nm | 95.5% | 7.09 | CCCCCCCCCCCC(=O)OCC1(COC(=O)CCCCCCCCCCC)CCN(C(=O)CCN(C)CCCn2ccc(=O)[nH]c2=O)CC1 [Compound 13]
0.165 | 64.67 nm | 96.4% | 7.58 | CCCCCCCCCCCC(=O)OCC1(COC(=O)CCCCCCCCCCC)CCN(C(=O)CCN(CC)CCO)CC1 [Compound 3]
0.133 | 85.67 nm | 98.3% | 7.17 | CCCCCCCCCCCC(=O)OCC1(COC(=O)CCCCCCCCCCC)CCN(C(=O)CCN(CCCCC)CCCNc2c(N(C)C)c(=O)c2=O)CC1 [Compound 48]
0.092 | 67.29 nm | 92.5% | 8.22 | CCCCCCCCCCCC(=O)OCC1(COC(=O)CCCCCCCCCCC)CCN(C(=O)CCN(C)CCCn2ccc(N)nc2=O)CC1 [Compound 14]
0.252 | 56.79 nm | 93.9% | 7.76 | CCCCCCCCCCCC(=O)OCC1(COC(=O)CCCCCCCCCCC)CCN(C(=O)CCN(CCC)CCO)CC1 [Compound 22]
0.23 | 98.67 nm | 95.8% | 7.45 | CCCCCCCCCCCC(=O)OCC1(COC(=O)CCCCCCCCCCC)CCN(C(=O)CCN(C)CCCNc2c(N(C)C)c(=O)c2=O)CC1 [Compound 12]
0.153 | 63.65 nm | 94.2% | 6.65 | CCCCCCCCCCCC(=O)OCC1(COC(=O)CCCCCCCCCCC)CCN(C(=O)CCN(C)CCCn2cnc3c(N)ncnc32)CC1 [Compound 15]
0.159 | 54.04 nm | 96.6% | 7.68 | CCCCCCCCCCCC(=O)OCC1(COC(=O)CCCCCCCCCCC)CCN(C(C)CO)CC1 (centres unmarked) [Compound 17]
0.079 | 80.24 nm | 92.5% | 7.29 | CCCCCCCCCCCC(=O)OCC1(COC(=O)CCCCCCCCCCC)CCN(C(=O)CCN(C)CCO)CC1 [Compound 2]
0.13 | 93.36 nm | 88.2% | 6.34 | CCCCCCCCCC(=O)OCC1(COC(=O)CCCCCCCCC)CCN(C(=O)CCN(CCCCCC)CCCCCC)CC1 [Compound 32]
0.42 | 89.41 nm | 97.0% | 13.20 | CCCCCCCCCCCC(=O)OCC1(COC(=O)CCCCCCCCCCC)CCN(C(=O)CCCN2CCCC2)CC1 [Compound 39]
0.095 | 67.83 nm | 93.2% | 7.84 | CCCCCCCCCCCC(=O)OCC1(COC(=O)CCCCCCCCCCC)CCN(C(=O)CCCN(CCC)CCO)CC1 [Compound 36]
0.198 | 127.8 nm | 73.2% | 6.71 | CCCCCCCCCCCC(=O)OCC1(COC(=O)CCCCCCCCCCC)CCN(CCCCCCO)CC1 [Compound 21]
0.101 | 68 nm | 98.2% | 9.02 | CCCCCCCCCCCC(=O)OCC1(COC(=O)CCCCCCCCCCC)CCN(C(=O)CCN2CCCCCC2)CC1 [Compound 7]
0.08 | 70.22 nm | 95.5% | – | CCCCCCCCCCCC(=O)OCC1(COC(=O)CCCCCCCCCCC)CCN(C(=O)CCN(C)C)CC1 [Compound 9]
0.316 | 94.1 nm | 102.1% | 8.09 | CCCCCCCCC(CCCCCC)COC(=O)CCCCCC(=O)OCC1(COC(=O)CCCCCC(=O)OCC(CCCCCC)CCCCCCCC)CCN(C(=O)CCN2CCCC2)CC1 (centres unmarked) [Compound 53]
0.214 | 89.71 nm | 69.9% | 6.83 | CCCCCCCCCCCC(=O)OCC1(COC(=O)CCCCCCCCCCC)CCN(C(=O)CCCN2CCOCC2)CC1 [Compound 43]
0.291 | 87.3 nm | 95.8% | 4.76 | CCCCCCCCCCCC(=O)OCC1(COC(=O)CCCCCCCCCCC)CCN(C(=O)CCN(CCCCCC)CCCNc2c(N(C)C)c(=O)c2=O)CC1 [Compound 49]
0.47 | 107.3 nm | 100.4% | 6.20 | CCCCCCCCC(CCCCCC)COC(=O)CCCCCC(=O)OCC1(COC(=O)CCCCCC(=O)OCC(CCCCCC)CCCCCCCC)CCN(C(=O)CCCN(C)C)CC1 (centres unmarked) [Compound 52]
0.136 | 67.72 nm | 92.7% | 6.39 | CCCCCCCCCCCC(=O)OCC1(COC(=O)CCCCCCCCCCC)CCN(C(=O)CCN(CCCCCC)CCCCCC)CC1 [Compound 31]
0.104 | 73.39 nm | 93.5% | 7.85 | CCCCCCCCCCCC(=O)OCC1(COC(=O)CCCCCCCCCCC)CCN(C(=O)CCCN(C)C)CC1 [Compound 38]
0.386 | 95.98 nm | 94.9% | 6.04 | CCCCCCCCCCCC(=O)OCC1(COC(=O)CCCCCCCCCCC)CCN(C(=O)CCCN(CCO)CCCC)CC1 [Compound 37]
0.11 | 71.72 nm | 93.6% | 8.27 | CCCCCCCCCCCC(=O)OCC1(COC(=O)CCCCCCCCCCC)CCN(C(=O)CCN(CC)CC)CC1 [Compound 27]
0.153 | 69.62 nm | 89.3% | 7.98 | CCCCCCCCCCCC(=O)OCC1(COC(=O)CCCCCCCCCCC)CCN(C(=O)CCN(CCO)CCCCC)CC1 [Compound 25]
0.142 | 116.2 nm | 79.2% | – | CCCCCCCCCCCC(=O)OCC1(COC(=O)CCCCCCCCCCC)CCN(C(=O)CCN(CCC)CCC)CC1 [Compound 28]
